From publication PMC9381674 (Cardiology and Therapy, 2022)
Like-named read-outs stand apart in the source and are kept apart here.

Experiments:
[1] = compared to intravenous administration; extensive first-pass effect; cited from earlier work
[2] = tested on: P-gp; settings: inhibitor for P-gp; cited from earlier work
[3] = tested on: CYP3A4/5; settings: strong index inhibitor of CYP3A4/5; cited from earlier work
[4] = tested on: CYP3A4/5; settings: preclinical results; ref unpublished data; cited from earlier work
[5] = tested on: P-glycoprotein (P-gp); settings: preclinical results; ref unpublished data; cited from earlier work
[6] = tested on: arterial and venous thrombosis; settings: preclinical models of arterial and venous thrombosis; cited from earlier work
[7] = format: in vivo, human
[8] = Safety assessments; format: in vivo, human; settings: single dose of milvexian alone and in combination with itraconazole or diltiazem
[9] = co-administration of itraconazole

COc1ccc([C@@H]2Sc3ccccc3N(CCN(C)C)C(=O)[C@@H]2OC(C)=O)cc1 [Diltiazem]
absolute oral bioavailability [1]: about 40%

CCC(C)n1ncn(-c2ccc(N3CCN(c4ccc(OCC5COC(Cn6cncn6)(c6ccc(Cl)cc6Cl)O5)cc4)CC3)cc2)c1=O (stereo not shown) [Itraconazole]
increase in the AUC of digoxin [2]: > 1.25 fold
increase in the AUC of sensitive substrates [3]: ≥ 10 fold

C[C@@H]1CCC[C@H](n2cnc(-c3cc(Cl)ccc3-n3cc(Cl)nn3)cc2=O)c2cc(ccn2)-c2c(cnn2C(F)F)NC1=O [Milvexian]
substrate of CYP3A4/5 [4]: substrate of CYP3A4/5
substrate for P-glycoprotein [5]: substrate for P-glycoprotein
antithrombotic activity [6]: demonstrated antithrombotic activity while preserving homeostasis
AUC(0–T) higher compared with milvexian alone ([7]; co-administration of diltiazem): 38%
AUC(INF) higher compared with milvexian alone ([7]; co-administration of diltiazem): 38%
C24 higher compared with milvexian alone ([7]; co-administration of diltiazem): 64%
mean Cmax higher compared with milvexian alone ([7]; co-administration of diltiazem): 9.6%
mean T1/2 longer compared with milvexian alone ([7]; co-administration of diltiazem): ~1.1 fold
AUC(0–T) higher compared with milvexian alone [7, 9]: 2.5 fold
AUC(INF) higher compared with milvexian alone [7, 9]: 2.5 fold
C24 higher compared with milvexian alone [7, 9]: 3.8 fold
mean T1/2 longer compared with milvexian alone [7, 9]: approximately 1.5 fold
effect of co-administration on median Tmax of milvexian ([7]; co-administration of itraconazole or diltiazem): not altered
impact of a moderate CYP3A inhibitor on milvexian exposure ([7]; diltiazem co-administration): less than 2.5 fold
impact of a strong CYP3A inhibitor on milvexian exposure ([7]; itraconazole co-administration): < 5 fold
deaths or serious AEs during the study [8]: no deaths or serious AEs
